The test system of one experiment is mature osteoclasts. In words: Osteoclasts apoptotic activity assay. In kind it is cell-based, mouse. The protocol: Mature osteoclasts were generated according to “Primary cultures of BMMs and osteoclastogenesis assay”. Mature osteoclasts were treated with or without compounds for 24 h[53]. At the end of incubation, cells were fixed with 4% paraformaldehyde and applied TRAP-staining. Apoptosis and cell death was measured by in situ fluorescence staining with AnnexinV-FITC (Beyotime Biotechnology) and prodidium iodide or DAPI staining flowing by their instructions. TRAP-positive cells, Annexin V, PI, and DAPI were visualized by Leica fluorescence microscopic.

A further experiment relates to NF-κB. In words: Reporter-gene assay for NF-κB. In kind it is cell-based, mouse. More on the design: NF-κB luciferase expression (fig. 6c): unit not given here. Particulars: for NF-κB luciferase expression (fig. 6c): sRANKL stimulated; for reporter signal (fig. S3h): three replicates. The protocol:
In order to investigate the NF-κB and NFAT transcriptional inhibition activity of selective sRANKL inhibitor, luciferase reporter gene assays were used[57]. RAW 264.7 cells stably transfected with an NF-κB luciferase reporter gene (3κB-Luc-SV40) or NFAT luciferase reporter gene were seeded into 96-well plates at a density of 1.5 × 10^5 or 1.0 × 10^5 cell per well respectively for 24 h. Cells were pretreated with compounds for 1 h, and then stimulated with sRANKL (100 ng/mL), TNF-ɑ (20 ng/mL), […] (50 ng/mL) and LPS (500 ng/mL) for 6 h for NF-κB transcriptional or 24 h for NFAT transcriptional. After treatment both cells were lysed and measured luciferase activity using a Promega Luciferase Assay system (Promega Corporation) by a Varioskan flash Multimode Microplate Reader (Thermo Scientific).

For experiment [1], the target named is T1, binary-RANKL (L-RANKL, mRANKL mimic) (Rattus norvegicus, UniProt Q9ESE2, D175N).
T1 construct: (3) mRANKL (sRANKL-GSGS-sRANKL, rat 159-318 aa); His6-sumo (N); made in house; host or cells: Escherichia coli BL21 (DE3)
In words: Isothermal titration calorimetry (ITC) with binary-RANKL. Particulars: 25 °C, PBS 0.8% DMSO; read-out: ITC KD with binary-RANKL (printed +mRANKL in Fig. 3a). It counts as binding. Here is the method:
ITC titrations were performed on the MicroCal iTC200 system at 25 °C[55]. Working stocks of compound S3-15 were prepared in 100% DMSO at 50 mM and then diluted to 500 μM at PBS with final DMSO concentration at 0.8% (v/v). PBS with 0.8% DMSO was used as ITC buffer. Purified sRANKL or L-RANKL protein was buffer exchanged into same ITC buffer using a Millipore spin column. S3-15 at 500 μM was loaded into a syringe and protein was loaded into an isothermal calorimeter cell. During titration, S3-15 in the […] was injected (2 μL per injection, 25 injections in total, and 180 s between each injection) regularly from a rotating syringe into protein solution in the isothermal calorimeter cell. The sample cell was stirred at 385 rpm. Reference cell power was set to 5 μcal/s. Control experiments were conducted under the same conditions using buffer solution instead of S3-15. Data were analyzed using a one-site binding model in Origin 7.1 software for ITC version 7.0 (MicroCal). The dissociation constant, KD, was calculated according to equation KD = 1/K. All other parameters, K ([…]), N (varying the stoichiometry), ΔH (enthalpy of the reaction), and ΔG ([…] of the reaction) were determined from the titration data.

For experiment [2], the target named is mouse mRANKL and mouse OPG (Mus musculus, UniProt O35235). In words: mRANKL-OPG binding, HEK 293T cells with full length mouse RANKL. It counts as cell-based. Here is the method:
mRANKL-OPG: MC3T3-E1 cells were differentiated by osteoblast differentiation medium (Pythonbio, China) for 2 days. Then cells were exposed to 1 M NaCl for 5 minutes to remove endogenous OPG, washed once in PBS, and fixed with 70% ethanol for 5 minutes at 4 °C. Fixed cells were wash once by PBS and then exposed to PBS that containing 100 ng mouse OPG (Sino, China) or 100 ng mouse OPG with 1 μM S3-15 and incubated for an additional 30 min at 4 °C. Cell layers were washed 2 times with PBS and lysed with 1% triton in PBS. The concentration of OPG in cell lysates were measured with an OPG ELISA kit (USCN, China). Similar proceed were performed using HEK 293 T cells that transfer full length mouse RANKL or human RANKL.

Experiment [3] concerns human sRANKL and human OPG. The experiment in a line: In vitro pull-down assay of sRANKL binding to OPG. Here is the method:
To evaluate whether S3-15 affects the binding of sRANKL or mRANKL to OPG, we did the pull-down assay.
sRANKL-OPG: 200 ng human sRANKL with his-sumo tag was incubated with Ni gel at 4 °C for 10 min. Then the Ni gel was washed with PBS for 3 times. 500 μL PBS that contains 100 ng Fc tag human OPG. Then S3-15 was treated in different concentration (0, 10, 1 and 0.3 μM). The mixtures were incubating at 4 °C for 30 min. Washed with PBS for 3 times. 500 μL 1% Triton X-100 in PBS was then added at 4 °C. The concentration of OPG was tested by OPG ELISA kit (USCN, China).

The test system of another experiment is OVX mice. The experiment in a line: Three-point bending test of femur (biomechanical strength). Particulars: OVX mice + S3-15, individual animals. It counts as in vivo, mouse. Here is the method:
The weight of rats or mice were recorded every week in the treatment period. After treatment, the rats were harvested, the serum, heart, liver, spleen, lung, kidney, thymus, and femurs were all collected and subjected to subsequent analysis. The right femurs of rats or mice were cleaned excess soft tissue, fixed in 10% formalin, and processed them for microcomputed tomography (micro-CT) analysis. Left mice femurs were collected and excarnate for biomechanical strength testing. Mice peripheral blood were as well as collected for flow cytometry analyzing.

The values that follow come from paper PMC9468151, “Identification of a binding site on soluble RANKL that can be targeted to inhibit soluble RANK-RANKL interactions and treat osteoporosis” (Nature Communications, 2022).

Molecules are shown by their SMILES. pEC50, pKd: −log10 of the molar value. Values joined by “and” are separate entries in the source; they are usually repeats but may differ in a detail not shown here. Identical values can stand only once. Like-named read-outs stand apart in the source and are kept apart here.

Sequence of mouse mRANKL and mouse OPG (O35235 whole entry): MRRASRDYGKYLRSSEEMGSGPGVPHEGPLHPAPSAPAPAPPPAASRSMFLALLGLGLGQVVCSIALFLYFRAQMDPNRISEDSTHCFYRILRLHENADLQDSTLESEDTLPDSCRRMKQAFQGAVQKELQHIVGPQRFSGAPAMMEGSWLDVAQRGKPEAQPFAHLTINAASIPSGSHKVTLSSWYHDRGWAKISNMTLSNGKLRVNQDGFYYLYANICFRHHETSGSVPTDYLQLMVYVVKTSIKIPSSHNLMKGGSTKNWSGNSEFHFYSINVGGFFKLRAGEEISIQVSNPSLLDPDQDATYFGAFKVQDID
T1 sequence (Q9ESE2 with tags, fused parts or gaps D175N): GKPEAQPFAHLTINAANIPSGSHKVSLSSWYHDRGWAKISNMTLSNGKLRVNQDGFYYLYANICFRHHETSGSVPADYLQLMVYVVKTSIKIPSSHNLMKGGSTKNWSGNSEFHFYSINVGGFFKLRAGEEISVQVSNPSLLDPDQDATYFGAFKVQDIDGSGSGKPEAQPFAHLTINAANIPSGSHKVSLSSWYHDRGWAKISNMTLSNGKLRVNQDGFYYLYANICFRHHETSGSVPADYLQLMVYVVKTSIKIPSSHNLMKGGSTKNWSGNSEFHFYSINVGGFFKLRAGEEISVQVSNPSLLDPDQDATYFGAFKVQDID

As to `CC(=O)/C(=N\Nc1ccccc1C(=O)O)C(=O)Nc1ccccn1` [S3-15], in the experiment with mature osteoclasts (Mus musculus, Osteoclast, 24 h treatment, read-out: EC50, apoptosis of mature osteoclasts), the negative logarithm of the EC50 (pEC50) (as a rule, −log10 of the EC50, conventionally taken in molar units) was 6.26. The “dead osteoclast quantification (fig. 6f)” value in the experiment on mature osteoclasts (mature osteoclasts, vehicle 41, 55, 67) was 227 and 290 and 265. Also, the “luciferase activity (fig. S3g, taken as NF-κB)” value is 748200 and 847300 and 792000 in the experiment on NF-κB (IL-1β stimulated + S3-15); 375600 and 397200 and 396100 with NF-κB (LPS stimulated + S3-15); 61380 and 70860 and 74440 with NF-κB (TNF-α stimulated + S3-15). The “NF-κB luciferase expression (fig. 6c)” value in the experiment on NF-κB (S3-15 conc. 0.08) was 32.0377 and 29.8492 and 26.4557; with NF-κB (S3-15 conc. 0.28), 25.9787 and 28.8312 and 30.4836; in the experiment on NF-κB (S3-15 conc. 0.92), 26.259 and 24.0852 and 28.8361; in the experiment with NF-κB (S3-15 conc. 3.03), 25.0885 and 25.1918 and 25.4328; with NF-κB (S3-15 conc. 10), 23.5738 and 23.8492 and 23.6426; in the experiment with NF-κB (S3-15 conc. 33) it was 17.4311 and 18.5918 and 15.8918. The “reporter signal (fig. S3h)” value with NF-κB (stimulus IL-1β) is 348400 and 323800 and 307900; in the experiment on NF-κB (stimulus LPS), 720100 and 801600 and 826800; with NF-κB (stimulus TNF-α), 62390 and 81670 and 85200. For the same compound, the “TNF-α, IL-β and LPS activated NF-κB” value in the experiment on NF-κB (without RANKL) is “cannot affect”. Also, in experiment [1], the pKd – broadly, the negative decadic logarithm of the Kd, by convention in mol/L – was 3.91. The “mouse mRANKL and mouse OPG binding” value in experiment [2] (293T cells, 1 μM) is reported as “no effects”. Further, in experiment [2] (OPG+S3-15), the “mRANKL-OPG binding signal (fig. S4o)” value is 0.9339 and 0.9921 and 0.6577. Moreover, the “sRANKL-OPG binding signal (fig. S4m)” value is 0.6462 and 0.65 and 0.761 in experiment [3]; 0.7746 and 0.9001 and 1.2775 in experiment [3] (0.3). Further, the “sRANKL and OPG binding” value is listed as “cannot affects” in experiment [3] (0.3 μM); “significantly suppressed” in experiment [3] (10 and 1 μM). Besides, the Femur ultimate load in the experiment with OVX mice was 16.2764 N and 16.6572 N and 19.3534 N and 19.5584 N and 18.4846 N and 18.452 N and 16.2074 N and 13.318 N.
